Here are results for 42 molecules from PubChem BioAssay AID2305 (GlaxoSmithKline (GSK), 2010).

This experiment deals with P. falciparum 3D7 growth, pLDH absorbance. As to the kind of experiment: blood-stage malaria parasite growth potency – strain 3D7, dose response (AID 2305).
As to `CCCCCCCc1cc(O)c2c(c1)OC(C)(C)c1ccncc1-2`, the IC50 (usually the concentration needed to halve the response being measured) came out at 1150 nM. The molecule `CCCCCN=C(N)N/N=C/c1c[nH]c2ccc(OC)cc12` showed an IC50 of 960 nM. This IC50 and that of the molecule before are within 1.5-fold of each other. To `CC(C)CCN1CCCN(Cc2cccc(NC(=O)c3ccc(-c4ccccc4)cc3)c2)CC1` belongs 890 nM; to `COc1ccc(CN(C)CCCOc2ccc(NC(=O)C=Cc3ccc(C(C)(C)C)cc3)cc2)cc1OC`, 860 nM. Turning to `COc1ccc2nccc([C@@H](O)CN3CCC(NC(=O)c4ccc(-c5ccccc5)s4)CC3)c2c1`, the IC50 was determined as 310 nM. `O=c1cc(NCCCNCc2ccc(Cl)c(Cl)c2)[nH]c2ccc(Oc3ccccc3)cc12` showed an IC50 of 850 nM. `Cc1cccc2[nH]c(-c3ccc(-c4ccc(CN5CCC(CO)CC5)cc4)s3)nc12`: the half-maximal inhibitory concentration (IC50) worked out at 810 nM. As to `CCn1c(C2CCN(CCC3CCN(C(=O)/C=C/c4ccc(Cl)c(Cl)c4)CC3)CC2)nc2ccccc21`, the IC50 was 1080 nM. For `CCOC(=O)C(=CNc1ccc(Cc2cnc(N)nc2N)cc1CC)C(=O)OCC`, the IC50 is 1140 nM. Regarding `CCOc1cc(C(=O)NC2CCN(Cc3ccccc3)C2)ccc1-c1nc2ccc(Cl)cc2[nH]1` (configuration not stated), the half-maximal inhibitory concentration (IC50) was found to be 1010 nM. This IC50 and that of the molecule before are within 1.5-fold of each other.

`Cc1[nH]c2cc(F)ccc2c1C1=CCN(CCCCC2(C)C(=O)Nc3ccccc32)CC1` (configuration not stated): the IC50 was 290 nM. The result for `O=C(/C=C/c1ccc(Cl)c(Cl)c1)NCCCCCN1CCC(NC(=O)Nc2ccc(Cl)c(Cl)c2)CC1` reads 890 nM. Consider `CC(C)(C)c1ccc(/C=C/C(=O)NCCCCCN2CCC(c3c[nH]c4ccccc34)CC2)cc1`, for which the IC50 was found to be 1090 nM. With `N#Cc1cccc(NC(=O)Nc2ccc(-c3csc(-c4nc5ccccc5[nH]4)c3)cc2)c1`, the IC50 was determined as 150 nM.

`Cc1cccc2[nH]c(-c3ccc(-c4ccc(CNCc5cccc(N)c5)cc4)cc3)nc12` yielded an IC50 of 570 nM. To `CCC(=O)Nc1ccc(C(O)CN2CCC3(C=Cc4ccccc4O3)CC2)cc1` (configuration not stated) belongs 1200 nM; to `CN1CCN(CC2(Nc3nccc(NCc4ccc(Cl)cc4Cl)n3)CCCCC2)CC1`, 590 nM. In turn, `COc1ccc(CNC2CCN(C)CC2)cc1-c1ccc(S(=O)(=O)NC2CCC2)c(C)c1` gave an IC50 of 990 nM.

In the case of `CC(C)(C)c1cc2cc(Nc3ccnc4cc(-c5nccs5)ccc34)ccc2[nH]1`, the IC50 came to 440 nM. `O=C(Nc1ccc(C(=O)Oc2cccc3ccccc23)cc1)N[C@@H](Cc1ccc(O)cc1)C(=O)NC1CCN(Cc2ccc(O)cc2)C1` (some centres not stated): the IC50 stood at 910 nM. The result for `O=C(Nc1ccc(F)cc1)c1nc2ccccc2nc1Cl` reads 1230 nM; that for `CCCNCc1ccc(-c2ccc(CN(Cc3ccc4c(c3)OCO4)C(=O)[C@H]3CCCO3)cc2)nc1`, 810 nM. The molecule `COc1cccc(NC(=O)[C@H](C(C)C)n2c(=O)[nH]c3ccccc3c2=O)c1` showed an IC50 of 270 nM.

`Cc1ccccc1C1CCN(C2CCC(NC(=O)/C=C/c3ccc(C(F)(F)F)cc3)CC2)CC1` (configuration not stated) showed a half-inhibitory concentration (IC50) of 1040 nM.

With `CN(C)CCNCc1cccc(-c2cccc(-c3nc4ccccc4[nH]3)c2)c1`, the IC50 was found to be 770 nM. In turn, `O=C(NCCCCCN1CCC(c2c[nH]c3ccccc23)C1)Nc1ccc(Cl)c(Cl)c1` (configuration not stated) came in with an IC50 of 810 nM. Turning to `Cc1ccc(Oc2ccccc2NC(=O)CCc2nc3ccccc3c(=O)[nH]2)cc1`, the IC50 was 830 nM. The IC50 values of the last two molecules are within 1.5-fold of each other. As to `O=C(N[C@@H]1C[C@H]1c1ccccc1)N(CCCn1ccnc1)Cc1csc(-c2ccc(CNCc3ccccc3)cc2)n1`, the IC50 was determined as 850 nM. The molecule `CCOc1ccc(C2CCN(CCCCNC(=O)c3ccc(NC(=O)c4ccc(Cl)cc4)cc3)CC2)c(OCC)c1` displayed an IC50 of 680 nM. `COc1cccc(C2=CC(C)(C)Oc3cc(OCCN(C)C)ccc32)c1`: the IC50 was found to be 790 nM.

As to `Cc1nc2nc(N)nc(N)c2c(C)c1Cc1ccc([N+](=O)[O-])cc1`, the IC50 stood at 440 nM. This IC50 lies about 1.8-fold lower than the previous one. To `Cc1cccc2[nH]c(-c3cccc(-c4cccc(NC(=O)Nc5ccc(Cl)cc5)c4)c3)nc12` belongs 240 nM; to `Cc1cc(C(=O)Nc2ccc(C)c(-c3nc(N(C(=O)c4ccc(F)c(C)c4)C4CCNCC4)nc4c3ccc(=O)n4-c3c(F)cccc3F)c2)ccc1F`, 320 nM; to `Nc1nc(N)c2c(ccc3c2cnn3Cc2cccnc2)n1`, 50 nM. To `CC(C)CCN1CCC(Oc2ccc(NC(=O)c3ccco3)cc2Cl)CC1` belongs 680 nM; to `CC(C)NCc1cccc(-c2ccc(NC(=O)c3ccc(C#N)cc3)cc2)c1`, 830 nM. The result for `C[C@@H]1CN(c2cnn(Cc3cccc(NC(=O)Nc4cccc(C(F)(F)F)c4)c3)c(=O)c2Cl)C[C@H](C)N1` reads 820 nM. Regarding `CCn1ncc2c(N3CCCC3=O)cc(C(=O)N[C@@H](Cc3ccccc3)[C@H](O)CNC(C)(C)c3cccc(OC)c3)cc21`, the IC50 worked out at 110 nM. Regarding `CS(=O)(=O)c1cccc(-c2cnc(N)c3cc(-c4ccc(F)cc4)ccc23)c1`, the IC50 is 900 nM. The result for `Cc1cccc2[nH]c(-c3ccc(-c4ccc(C(=O)NCCN5CCCC5)cc4)s3)nc12` reads 900 nM; that for `O=C(CC1NC(=O)c2ccccc21)Nc1ccc(-c2cccc(-c3nc4ccc(C(F)(F)F)cc4[nH]3)c2)cc1` (configuration not stated), 960 nM.

`Cc1cccc(N2C(N)=NC(N)=NC2(C)C)c1C` gave an IC50 of 760 nM.
